Results as given in ChEMBL document CHEMBL1130901, “Halohydrin analogues of cryptophycin 1: synthesis and biological activity” (Bioorg Med Chem Lett, 1998).

What was measured:
[1] = Half life in PEM buffer at pH 7.4; type: ADME
[2] = Half life in phosphate buffer at pH 7.4; type: ADME
[3] = Tested in vitro for the concentration that reduces the amount of pelleted protein by 50% in microtubule assembly assay.; type: functional

Structure (SMILES) | half-life [1] | half-life [2] | ED50 [3]
COc1ccc(C[C@H]2NC(=O)/C=C/C[C@@H]([C@H](C)[C@@H](O)[C@@H](Cl)c3ccccc3)OC(=O)[C@H](CC(C)C)OC(=O)[C@H](C)CNC2=O)cc1Cl | 75 min | 660 min | 7.5 mM
COc1ccc(C[C@H]2NC(=O)/C=C/C[C@@H]([C@H](C)[C@@H](O)[C@@H](I)c3ccccc3)OC(=O)[C@H](CC(C)C)OC(=O)[C@H](C)CNC2=O)cc1Cl | < 1 min | 2.5 min | 
COc1ccc(C[C@H]2NC(=O)/C=C/C[C@@H]([C@H](C)[C@@H](O)[C@@H](Br)c3ccccc3)OC(=O)[C@H](CC(C)C)OC(=O)[C@H](C)CNC2=O)cc1Cl | 3.7 min | 11 min | 
